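Step 1: Grow cells in 96-well plates. Step 2: Expose to compound for 48 hours at 5 concentrations. Step 3: Interpolate endpoints linearly; if unreached, use highest concentration. TGI denotes the concentration required for complete inhibition of growth.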
Tests used:
Assay in all cases: growth of human tumour cells (NCI), 48 h
[1] = test system: SK-MEL-28 melanoma
[2] = test system: MDA-N
[3] = test system: BT-549 breast
[4] = test system: UO-31 renal
[5] = test system: NCI-H522 lung
[6] = test system: RXF 393 renal
[7] = test system: DU-145 prostate
[8] = test system: CCRF-CEM leukemia
[9] = test system: ACHN renal
[10] = test system: UACC-257 melanoma
[11] = test system: MCF7 breast
[12] = test system: SK-MEL-2 melanoma
[13] = test system: T-47D breast
[14] = test system: MOLT-4 leukemia
[15] = test system: K-562 leukemia
[16] = test system: SF-539 CNS
[17] = test system: OVCAR-5 ovarian
[18] = test system: M14 melanoma
[19] = test system: MDA-MB-231 breast
[20] = test system: TK-10 renal
[21] = test system: MDA-MB-435
[22] = test system: U251 CNS
[23] = test system: NCI-H460 lung
[24] = test system: SR leukemia
[25] = test system: LOX IMVI melanoma
[26] = test system: A498 renal
[27] = test system: SK-OV-3 ovarian
[28] = test system: UACC-62 melanoma
[29] = test system: PC-3 prostate
[30] = test system: HOP-92 NSCLC
[31] = test system: COLO 205 colon
[32] = test system: SF-295 CNS
[33] = test system: SNB-19 CNS
[34] = test system: IGROV1 ovarian
[35] = test system: RPMI-8226 leukemia
[36] = test system: MALME-3M melanoma
[37] = test system: HCC-2998 colon
[38] = test system: CAKI-1 renal
[39] = test system: A549 NSCLC
[40] = test system: HCT-15 colon
[41] = test system: SW-620 colon
[42] = test system: OVCAR-4 ovarian
[43] = test system: HCT-116 colon
[44] = test system: SK-MEL-5 melanoma
[45] = test system: EKVX NSCLC
[46] = test system: SN12C renal
[47] = test system: HL-60(TB) leukemia
[48] = test system: OVCAR-3 ovarian
[49] = test system: NCI-H23 lung
[50] = test system: HT29 colon
[51] = test system: KM12 colon
[52] = test system: HOP-62 NSCLC
[53] = test system: SF-268 CNS
[54] = test system: OVCAR-8 ovarian
[55] = test system: NCI/ADR-RES ovarian
[56] = test system: NCI-H226 lung
[57] = test system: 786-0 renal
[58] = test system: SNB-75 CNS

CC(=O)OCC1OC(N2C(=O)NC(=O)C3C=C4CCCCC4=CC32)C(OC(C)=O)C1OC(C)=O (stereo not given)
TGI [1]: > 100 µM | TGI [2]: > 100 µM | TGI [3]: > 100 µM | TGI [4]: > 100 µM | TGI [5]: > 100 µM | TGI [6]: > 100 µM | TGI [7]: > 100 µM | TGI [8]: > 100 µM | TGI [9]: > 100 µM | TGI [10]: > 100 µM | TGI [11]: > 100 µM | TGI [12]: > 100 µM | TGI [13]: > 100 µM | TGI [14]: > 100 µM | TGI [15]: > 100 µM | TGI [16]: > 100 µM | TGI [17]: > 100 µM | TGI [18]: > 100 µM | TGI [19]: > 100 µM | TGI [20]: > 100 µM | TGI [21]: > 100 µM | TGI [22]: > 100 µM | TGI [23]: > 100 µM | TGI [24]: > 100 µM | TGI [25]: > 100 µM | TGI [26]: > 100 µM | TGI [27]: > 100 µM | TGI [28]: > 100 µM | TGI [29]: > 100 µM | TGI [30]: > 100 µM | TGI [31]: > 100 µM | TGI [32]: > 100 µM | TGI [33]: > 100 µM | TGI [34]: > 100 µM | TGI [35]: > 100 µM | TGI [36]: > 100 µM | TGI [37]: > 100 µM | TGI [38]: > 100 µM | TGI [39]: > 100 µM | TGI [40]: > 100 µM | TGI [41]: > 100 µM | TGI [42]: > 100 µM | TGI [43]: > 100 µM | TGI [44]: > 100 µM | TGI [45]: > 100 µM | TGI [46]: > 100 µM | TGI [47]: > 100 µM | TGI [48]: > 100 µM | TGI [49]: > 100 µM

C#Cc1cc(-c2nc3ccccc3s2)ccc1N
TGI [1]: 35.6 µM | TGI [2]: 97.6 µM | TGI [3]: 94.9 µM | TGI [4]: 56.3 µM | TGI [5]: 32.3 µM | TGI [6]: 93.9 µM | TGI [7]: 39.5 µM | TGI [50]: 33 µM | TGI [8]: 56 µM | TGI [51]: 46.9 µM | TGI [9]: 70.3 µM | TGI [10]: 27.9 µM | TGI [11]: 31.4 µM | TGI [52]: > 100 µM | TGI [12]: 35.9 µM | TGI [13]: 45.6 µM | TGI [14]: 91.1 µM | TGI [53]: > 100 µM | TGI [15]: 89 µM | TGI [54]: > 100 µM | TGI [16]: 81.3 µM | TGI [17]: > 100 µM | TGI [55]: 86.5 µM | TGI [18]: 34.5 µM | TGI [20]: 36.8 µM | TGI [21]: 40.4 µM | TGI [22]: 63.6 µM | TGI [23]: 74.5 µM | TGI [24]: 92.4 µM | TGI [25]: 27.8 µM | TGI [27]: 69.7 µM | TGI [28]: 36.6 µM | TGI [56]: 47.8 µM | TGI [29]: 94.1 µM | TGI [30]: 44.7 µM | TGI [31]: 32.9 µM | TGI [32]: 54.8 µM | TGI [33]: 66.9 µM | TGI [34]: 53.8 µM | TGI [35]: 76.8 µM | TGI [36]: 63.4 µM | TGI [37]: 32.6 µM | TGI [38]: 50.4 µM | TGI [57]: > 100 µM | TGI [39]: 42.8 µM | TGI [40]: 42.8 µM | TGI [41]: 81.8 µM | TGI [42]: 47.1 µM | TGI [43]: 32.9 µM | TGI [44]: 68.6 µM | TGI [45]: 65 µM | TGI [46]: 79 µM | TGI [47]: > 100 µM | TGI [48]: 42.4 µM | TGI [49]: 55.9 µM

CCOC(=O)C1=c2[nH]c3cccc4cccc(c43)n2C(=O)CC1
TGI [1]: > 100 µM | TGI [2]: > 100 µM | TGI [3]: > 100 µM | TGI [4]: > 100 µM | TGI [6]: > 100 µM | TGI [7]: > 100 µM | TGI [8]: > 100 µM | TGI [51]: 89.3 µM | TGI [9]: > 100 µM | TGI [10]: > 100 µM | TGI [11]: > 100 µM | TGI [52]: > 100 µM | TGI [12]: > 100 µM | TGI [13]: 69.8 µM | TGI [14]: > 100 µM | TGI [15]: > 100 µM | TGI [54]: > 100 µM | TGI [17]: > 100 µM | TGI [55]: > 100 µM | TGI [18]: > 100 µM | TGI [58]: > 100 µM | TGI [20]: > 100 µM | TGI [21]: > 100 µM | TGI [22]: > 100 µM | TGI [23]: > 100 µM | TGI [24]: > 100 µM | TGI [25]: 62.2 µM | TGI [26]: > 100 µM | TGI [27]: > 100 µM | TGI [28]: > 100 µM | TGI [29]: > 100 µM | TGI [30]: > 100 µM | TGI [31]: > 100 µM | TGI [32]: > 100 µM | TGI [33]: > 100 µM | TGI [34]: > 100 µM | TGI [35]: > 100 µM | TGI [37]: > 100 µM | TGI [38]: > 100 µM | TGI [57]: > 100 µM | TGI [39]: > 100 µM | TGI [40]: > 100 µM | TGI [41]: 71.3 µM | TGI [42]: > 100 µM | TGI [43]: > 100 µM | TGI [44]: > 100 µM | TGI [45]: > 100 µM | TGI [46]: > 100 µM | TGI [47]: 64 µM | TGI [48]: > 100 µM | TGI [49]: > 100 µM
